Measurements published in patent US10772885B2, “Composition for treating ocular diseases and methods of usage and making” (REYOUNG (SUZHOU) BIOLOGY SCIENCE & TECHNOLOGY CO., LTD., priority 2016, dated 2020).

Tested on: CNV
Assay: Laser photocoagulation-induced CNV in rats (FP/FFA, fluorescein leakage grading)
Type: in vivo, Brown Norway (BN) rats
Conditions: for Mean fluorescein leakage score vs model group / Ratio of grade 3 light spots vs model group: after treatment
Method: Specific-pathogen-free (SPF) grade Brown Norway (BN) rats, half male and half female, were treated with fundus laser photocoagulation, the date of which was counted as D0. At D8, 32 rats with similar areas of fluorescence leakage were selected, separated to 8 groups, with each group including 4 rats (half male and half female): • Group 1 is a model group without any treatment. • Group 2 is a positive control group, in which Conbercept was injected into the vitreous cavity of the rats' eyes at the dosage of 50 μg/eye and […]. • In group 3, both eyes of the rats were administered with nintedanib ethanesulfonate at the dosage of 125 μg/eye and 6 times per day from day 8 and day 15 (D8˜D15). • In group 4, both eyes of the rats were administered with nintedanib ethanesulfonate at the dosage of 25 μg/eye and 6 times per day from day 8 and day 15 (D8˜D15). • In group 5, both eyes of the rats were administered with nintedanib ethanesulfonate at the dosage of 5 μg/eye and 6 times per day from day 8 and day 15 (D8˜D15). • In group 6, both eyes of the rats were administered with nintedanib ethanesulfonate at the dosage of 2.5 μg/eye and 6 times per day from day 8 and day 15 (D8˜D15). • In group 7, both eyes of the rats were administered with nintedanib ethanesulfonate at the dosage of 0.5 μg/eye and 6 times per day from day 8 and day 15 (D8 D15). • In […], both eyes of the rats were administered with nintedanib ethanesulfonate at the dosage of 0.1 μg/eye and 6 times per day from day 8 and day 15 (D8 D15).
All rats were tested with fundus photography (“FP”) and fundus fluorescein angiography (“FFA”) one day before administration and 8 days after administration. The degree of CNV was graded according to the degree of fluorescence leakage. The results were used to evaluate the effect of nintedanib ethanesulfonate on rat CNV, the results of which are shown in FIG. 2.
The ratio is calculate by comparing the early-phase and last-phase fluorescein angiograms. The fluorescence leakage of the light spots was graded as follows: grade 0 (no leakage); grade 1 (slight leakage, leakage area is 1%-50% of the light spot size); grade 2 (moderate leakage, leakage area is 50%-100% of the light spot size); grade 3 (strong leakage, leakage area is larger than the light spot size). The ratios of light spots for certain grade were calculated as follows: Ratio of light spot (%)=(the number of light spot at certain grade÷the sum of four kinds of light spots)×100.
The mean fluorescein leakage score is calculated as follows: Mean fluorescein leakage score=[(number of grade 0 light spot×0)+(number of grade 1 light spot×1)+(number of grade 2 light spot×2)+(number of grade 3 light spot×3)]÷the sum of four kinds of light spots

[1] = groups 3-6 (125, 25, 5, 2.5 μg/eye)
[2] = positive control group, 50 μg/eye into the vitreous cavity

Row | Compound | Ratio of grade 1 light spots vs positive control group (all groups) | Ratios of light spots, mean fluorescein leakage score and development of CNV (eye drops at 125, 25, 5, 2.5, 0.5 μg/eye) | Ratio of grade 1 light spots vs positive control group (fifth group (5 μg/eye), p≤0.05) | Leakage vs positive control group (group 5 (5 μg/eye), p≤0.05) | Ratio of grade 3 light spots vs positive control group [1] | Mean fluorescein leakage score vs model group [1] | Ratio of grade 3 light spots vs model group [1] | Ratio of grade 1 light spots vs model group (groups 3-6 (125, 25, 5, 2.5 μg/eye), p≤0.05) | Adverse reactions (groups 3 and 4 (125 and 25 μg/eye, 6 times per day, D8-D15), some of the animals) | Inhibition of CNV in rats (groups 4-6 (25, 5, 2.5 μg/eye), 1 week after photocoagulation) | Mean fluorescein leakage score (groups 7 and 8 (0.5 and 0.1 μg/eye)) | Adverse reactions (other groups (5, 2.5, 0.5, 0.1 μg/eye, 6 times per day, D8-D15)) | Ratio of the level 0 and level 2 light spot vs positive control group (other groups, p>0.05) | Inhibition of leakage vs positive control group (printed: first group) | Leakage caused by CNV (rat, in vivo) | Mean fluorescein leakage score vs model group [2] | Ratio of grade 3 light spots vs model group [2]
1 | COC(=O)c1ccc2c(c1)NC(=O)/C2=C(\Nc1ccc(N(C)C(=O)CN2CCN(C)CC2)cc1)c1ccccc1 [nintedanib ethanesulfonate] | increased | can inhibit | significantly increased | significantly decreased | lower | significantly decreased | significantly decreased | increased | corneal opacity | significantly inhibited the CNV | no statistically significant difference | did not experience any significantly adverse reactions | no significant difference | slightly stronger | can inhibit the leakage caused by CNV | – | –
2 | Conbercept: Monoclonal antibody or fusion protein targeting VEGF, developed by a Chinese company and launched in 2013; positive control | – | – | – | – | – | – | – | – | – | – | – | – | – | – | – | significantly decreased | significantly decreased
